Data as given in patent US9834558B2, “Substituted bridged urea analogs as sirtuin modulators” (GLAXOSMITHKLINE LLC, priority 2013, dated 2017).

The compounds below were run against T1, SIRT1 (Homo sapiens, UniProt Q96EB6) (assay: Trp mass spectrometry assay of SIRT1 activation). Settings: concentration giving 150% activation of SIRT1; Trp peptide substrate.
T1 sequence (Q96EB6 1-747): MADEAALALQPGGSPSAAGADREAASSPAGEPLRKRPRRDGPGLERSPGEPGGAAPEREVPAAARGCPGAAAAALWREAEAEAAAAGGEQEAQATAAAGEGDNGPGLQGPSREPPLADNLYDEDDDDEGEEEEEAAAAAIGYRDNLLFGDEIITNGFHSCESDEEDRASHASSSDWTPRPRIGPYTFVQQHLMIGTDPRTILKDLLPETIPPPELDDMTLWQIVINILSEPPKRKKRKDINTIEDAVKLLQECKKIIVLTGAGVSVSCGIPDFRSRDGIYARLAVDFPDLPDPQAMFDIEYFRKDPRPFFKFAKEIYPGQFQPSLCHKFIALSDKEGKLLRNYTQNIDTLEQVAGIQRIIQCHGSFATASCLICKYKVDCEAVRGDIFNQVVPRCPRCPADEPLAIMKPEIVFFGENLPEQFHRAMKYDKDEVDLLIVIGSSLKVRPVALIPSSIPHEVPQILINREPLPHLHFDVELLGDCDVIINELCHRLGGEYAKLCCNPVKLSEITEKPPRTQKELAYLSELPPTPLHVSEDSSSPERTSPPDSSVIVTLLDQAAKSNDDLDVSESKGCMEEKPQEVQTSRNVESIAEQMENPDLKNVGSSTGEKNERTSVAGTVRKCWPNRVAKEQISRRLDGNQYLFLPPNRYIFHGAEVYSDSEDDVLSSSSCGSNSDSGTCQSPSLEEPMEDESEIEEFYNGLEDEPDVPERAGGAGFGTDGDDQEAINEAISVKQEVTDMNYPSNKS
Type: biochemical
How it was run: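 Activation read-out: mass-spec measurement of O-acetyl-ADP-ribose or deacetylated Trp peptide versus compound-free controls, giving EC1.5 and Percent Maximum Activation. Reactions ran 25 min at 25 °C, pH 7.5, with 120 μM βNAD+, 0.5 μM acetylated p53-derived peptide and 10 nM His-tagged SIRT1.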

SMILES | Tryp AVG EC1.5 (μM)
O=C(Nc1cccc(-c2ccoc2)n1)N1c2nc(-c3cccc(C(F)(F)F)c3)ccc2N2CC[C@H]1C2 [Example 654] | A (A (EC1.5<1 μM))
O=C(Nc1cccc(-c2cccnc2)n1)N1c2nc(-c3cccc(C(F)(F)F)c3)ccc2N2CC[C@H]1C2 [Example 655] | A (A (EC1.5<1 μM))
CCCn1cc(-c2cccc(NC(=O)N3c4nc(-c5cccc(C(F)(F)F)c5)ccc4N4CC[C@H]3C4)n2)cn1 [Example 656] | A (A (EC1.5<1 μM))
Cc1noc(C)c1-c1cccc(NC(=O)N2c3nc(-c4cccc(C(F)(F)F)c4)ccc3N3CC[C@H]2C3)n1 [Example 657] | A (A (EC1.5<1 μM))
O=C(Nc1cccc(C2=CCOCC2)n1)N1c2nc(-c3cccc(C(F)(F)F)c3)ccc2N2CC[C@H]1C2 [Example 658] | A (A (EC1.5<1 μM))
NC(=O)c1ccc(NC(=O)N2c3nc(-c4cccc(C(F)(F)F)c4)ccc3N3CC[C@H]2C3)cc1 [Example 659] | A (A (EC1.5<1 μM))
O=C(Nc1cccc(-c2cccnc2)c1)N1c2nc(-c3cccc(C(F)(F)F)c3)ccc2N2CC[C@H]1C2 [Example 660] | A (A (EC1.5<1 μM))
O=C(NCCn1ccnc1)N1c2nc(-c3cccc(C(F)(F)F)c3)ccc2N2CC[C@H]1C2 [Example 661] | C (C (EC1.5>25 μM))
O=C(Nc1cc(-c2cnco2)ccn1)N1c2nc(-c3cccc(C(F)(F)F)c3)ccc2N2C[C@@H](O)[C@H]1C2 [Example 662] | B (B (EC1.5 1-25 μM))
O=C(Nc1cccnc1)N1c2nc(-c3cccc(C(F)(F)F)c3)ccc2N2C[C@@H](O)[C@H]1C2 [Example 663] | A (A (EC1.5<1 μM))
COc1cc(NC(=O)N2c3nc(-c4cccc(C(F)(F)F)c4)ccc3N3C[C@@H](O)[C@H]2C3)nc(OC)n1 [Example 664] | B (B (EC1.5 1-25 μM))
O=C(Nc1cccc(-c2cnco2)c1)N1c2nc(-c3cccc(C(F)(F)F)c3)ccc2N2C[C@@H](O)[C@H]1C2 [Example 665] | A (A (EC1.5<1 μM))
O=C(Nc1ccc2[nH]ncc2c1)N1c2nc(-c3cccc(C(F)(F)F)c3)ccc2N2CC[C@H]1C2 [Example 666] | A (A (EC1.5<1 μM))
O=C(Nc1cccc(-c2ccccn2)c1)N1c2nc(-c3cccc(C(F)(F)F)c3)ccc2N2CC[C@H]1C2 [Example 667] | A (A (EC1.5<1 μM))
CC(=O)c1ccc(NC(=O)N2c3nc(-c4cccc(C(F)(F)F)c4)ccc3N3CC[C@H]2C3)cc1 [Example 668] | A (A (EC1.5<1 μM))
O=C(Nc1ccncn1)N1c2nc(-c3cccc(C(F)(F)F)c3)ccc2N2C[C@@H](O)[C@H]1C2 [Example 669] | B (B (EC1.5 1-25 μM))
Cc1cncc(NC(=O)N2c3nc(-c4cccc(C(F)(F)F)c4)ccc3N3C[C@@H](O)[C@H]2C3)c1 [Example 670] | A (A (EC1.5<1 μM))
CC(=O)c1cccc(NC(=O)N2c3nc(-c4cccc(C(F)(F)F)c4)ccc3N3CC[C@H]2C3)c1 [Example 671] | A (A (EC1.5<1 μM))
O=C(Nc1ccc(Br)c(-c2cnco2)c1)N1c2nc(-c3cccc(C(F)(F)F)c3)ccc2N2CC[C@H]1C2 [Example 672] | A (A (EC1.5<1 μM))
O=C(NCCCc1ccccn1)N1c2nc(-c3cccc(C(F)(F)F)c3)ccc2N2CC[C@H]1C2 [Example 673] | B (B (EC1.5 1-25 μM))
O=C(NCCCc1cccnc1)N1c2nc(-c3cccc(C(F)(F)F)c3)ccc2N2CC[C@H]1C2 [Example 674] | B (B (EC1.5 1-25 μM))
O=C(Nc1ccccn1)N1c2nc(-c3cccc(Cl)c3)ccc2N2C[C@@H](O)[C@H]1C2 [Example 675] | B (B (EC1.5 1-25 μM))
Cc1cncc(NC(=O)N2c3nc(-c4cccc(Cl)c4)ccc3N3C[C@@H](O)[C@H]2C3)c1 [Example 676] | A (A (EC1.5<1 μM))
Cc1cncc(NC(=O)N2c3nc(-c4cccc(Cl)c4)ccc3N3C[C@@H](O)[C@H]2C3)c1 [Example 677] | B (B (EC1.5 1-25 μM))
O=C(Nc1cnccn1)N1c2nc(-c3cccc(Cl)c3)ccc2N2C[C@@H](O)[C@H]1C2 [Example 678] | C (C (EC1.5>25 μM))

SMILES | Tryp AVG EC1.5 (μM)
COc1cc(NC(=O)N2c3nc(-c4cccc(Cl)c4)ccc3N3C[C@@H](O)[C@H]2C3)ncn1 [Example 679] | B (B (EC1.5 1-25 μM))
COc1cc(NC(=O)N2c3nc(-c4cccc(Cl)c4)ccc3N3C[C@@H](O)[C@H]2C3)nc(OC)n1 [Example 680] | B (B (EC1.5 1-25 μM))
O=C(Nc1cccnc1)N1c2nc(-c3cccc(Cl)c3)ccc2N2C[C@@H](O)[C@H]1C2 [Example 681] | B (B (EC1.5 1-25 μM))
O=C(Nc1cccnn1)N1c2nc(-c3cccc(Cl)c3)ccc2N2C[C@@H](O)[C@H]1C2 [Example 682] | B (B (EC1.5 1-25 μM))
O=C(Nc1cccc(-c2cnco2)c1)N1c2nc(-c3cccc(Cl)c3)ccc2N2C[C@@H](O)[C@H]1C2 [Example 683] | A (A (EC1.5<1 μM))
O=C(Nc1ccncn1)N1c2nc(-c3cccc(Cl)c3)ccc2N2C[C@@H](O)[C@H]1C2 [Example 684] | B (B (EC1.5 1-25 μM))
O=C(Nc1cc(-c2cnco2)ccn1)N1c2nc(-c3cccc(Cl)c3)ccc2N2C[C@@H](O)[C@H]1C2 [Example 685] | B (B (EC1.5 1-25 μM))
Cc1nc(NC(=O)N2c3nc(-c4cccc(Cl)c4)ccc3N3C[C@@H](O)[C@H]2C3)sc1C [Example 688] | B (B (EC1.5 1-25 μM))
O=C(NCCCCn1ccnc1)N1c2nc(-c3cccc(C(F)(F)F)c3)ccc2N2CC[C@H]1C2 [Example 689] | B (B (EC1.5 1-25 μM))
Cc1cncc(NC(=O)N2c3nc(-c4cncc(C(F)(F)F)c4)ccc3N3C[C@@H](O)[C@H]2C3)c1 [Example 690] | B (B (EC1.5 1-25 μM))
O=C(Nc1cncc(F)c1)N1c2nc(-c3cncc(C(F)(F)F)c3)ccc2N2C[C@@H](O)[C@H]1C2 [Example 691] | B (B (EC1.5 1-25 μM))
O=C1CN2C[C@H]1N(C(=O)Nc1cccc(-c3cnco3)c1)c1nc(-c3cccc(C(F)(F)F)c3)ccc12 [Example 692] | A (A (EC1.5<1 μM))
O=C(Nc1cccc(-c2cnco2)n1)N1c2nc(-c3cccc(Cl)c3)ccc2N2C[C@@H](O)[C@H]1C2 [Example 693] | A (A (EC1.5<1 μM))
O=C(Nc1ccccn1)N1c2nc(-c3cncc(C(F)(F)F)c3)ccc2N2C[C@@H](O)[C@H]1C2 [Example 694] | A (A (EC1.5<1 μM))
O=C(Nc1cnccn1)N1c2nc(-c3cncc(C(F)(F)F)c3)ccc2N2C[C@@H](O)[C@H]1C2 [Example 695] | B (B (EC1.5 1-25 μM))
COc1cc(NC(=O)N2c3nc(-c4cncc(C(F)(F)F)c4)ccc3N3C[C@@H](O)[C@H]2C3)ncn1 [Example 696] | B (B (EC1.5 1-25 μM))
Cc1nc(NC(=O)N2c3nc(-c4cncc(C(F)(F)F)c4)ccc3N3C[C@@H](O)[C@H]2C3)sc1C [Example 697] | B (B (EC1.5 1-25 μM))
O=C(Nc1cccc(-c2cnco2)n1)N1c2nc(-c3cccc(C(F)(F)F)c3)ccc2N2C[C@@H](O)[C@H]1C2 [Example 698] | A (A (EC1.5<1 μM))
Cc1nc(NC(=O)N2c3nc(-c4cccc(C(F)(F)F)c4)ccc3N3C[C@@H](O)[C@H]2C3)sc1C [Example 699] | B (B (EC1.5 1-25 μM))
O=C(Nc1ccncn1)N1c2nc(-c3cncc(C(F)(F)F)c3)ccc2N2C[C@@H](O)[C@H]1C2 [Example 700] | B (B (EC1.5 1-25 μM))
O=C(Nc1cccnn1)N1c2nc(-c3cncc(C(F)(F)F)c3)ccc2N2C[C@@H](O)[C@H]1C2 [Example 701] | B (B (EC1.5 1-25 μM))
O=C(Nc1cccc(-c2cnco2)n1)N1c2nc(-c3cncc(C(F)(F)F)c3)ccc2N2C[C@@H](O)[C@H]1C2 [Example 703] | A (A (EC1.5<1 μM))
COc1cc(NC(=O)N2c3nc(-c4cncc(C(F)(F)F)c4)ccc3N3C[C@@H](O)[C@H]2C3)nc(OC)n1 [Example 704] | B (B (EC1.5 1-25 μM))
O=C(Nc1cccnc1)N1c2nc(-c3cncc(C(F)(F)F)c3)ccc2N2C[C@@H](O)[C@H]1C2 [Example 705] | B (B (EC1.5 1-25 μM))
